This is an account of results in paper doi:10.1101/2025.07.09.663820v1 (biorxiv, 2025).

Common to all, as to assay: isothermal titration calorimetry
Holding throughout (assay type): binding

One assay addresses T1, CERK6 (Lotus japonicus, UniProt D3KTZ6).
T1 sequence (D3KTZ6 26-223): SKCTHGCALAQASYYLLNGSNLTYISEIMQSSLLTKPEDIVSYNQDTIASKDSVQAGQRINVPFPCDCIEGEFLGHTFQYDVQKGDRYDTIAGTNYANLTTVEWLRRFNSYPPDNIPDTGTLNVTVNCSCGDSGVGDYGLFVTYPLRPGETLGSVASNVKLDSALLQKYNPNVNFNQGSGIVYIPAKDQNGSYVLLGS
The settings on record: read-out: affinity; ectodomain; crystal structure: CO5 in LysM1 and LysM2.

Assay [1] concerns the target T2, CHIP13 (Lotus japonicus, UniProt D3KU00).
T2 sequence (D3KU00 33-253): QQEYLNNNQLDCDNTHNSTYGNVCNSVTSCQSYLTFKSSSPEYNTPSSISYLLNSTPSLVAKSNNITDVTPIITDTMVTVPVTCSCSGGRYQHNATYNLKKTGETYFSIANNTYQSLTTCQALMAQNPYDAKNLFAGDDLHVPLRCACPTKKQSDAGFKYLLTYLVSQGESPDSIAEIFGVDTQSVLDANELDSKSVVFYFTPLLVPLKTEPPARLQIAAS
The settings on record: ectodomain.

Another assay addresses T3, LYR4 (Medicago truncatula, UniProt G7K7K0).
T3 sequence (G7K7K0 24-242): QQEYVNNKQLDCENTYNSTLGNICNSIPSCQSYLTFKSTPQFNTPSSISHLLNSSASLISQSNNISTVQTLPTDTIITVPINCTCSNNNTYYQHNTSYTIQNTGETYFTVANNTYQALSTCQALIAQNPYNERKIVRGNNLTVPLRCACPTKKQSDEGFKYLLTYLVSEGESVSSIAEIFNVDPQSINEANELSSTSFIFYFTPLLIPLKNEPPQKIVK
The settings on record: ectodomain.

Another assay deals with T4, MtCERK1 (Medicago truncatula, UniProt G7J6P5).
T4 sequence (G7J6P5 30-232): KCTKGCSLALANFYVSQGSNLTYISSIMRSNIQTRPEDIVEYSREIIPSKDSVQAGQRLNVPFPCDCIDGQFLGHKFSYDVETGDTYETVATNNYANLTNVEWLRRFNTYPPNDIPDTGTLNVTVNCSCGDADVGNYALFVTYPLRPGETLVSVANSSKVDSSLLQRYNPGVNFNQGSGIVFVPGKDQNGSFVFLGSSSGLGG
The settings on record: read-out: affinity; ectodomain.

The target of assay [2] is T5, CHIP13 (Lotus japonicus, UniProt D3KU00, Y232A/F233A).
T5 sequence (D3KU00 33-253 Y232A/F233A): T2 sequence (D3KU00 33-253) with Y200A, F201A
The following applies: ectodomain variant.

Structures are written as SMILES. Positions count from the first letter of the chain named.

In the case of `CC(=O)N[C@H]1[C@H](O[C@H]2[C@H](O)[C@@H](NC(C)=O)[C@H](O[C@H]3[C@H](O)[C@@H](NC(C)=O)C(O)O[C@@H]3CO)O[C@@H]2CO)O[C@H](CO)[C@@H](O[C@@H]2O[C@H](CO)[C@@H](O[C@@H]3O[C@H](CO)[C@@H](O)[C@H](O)[C@H]3NC(C)=O)[C@H](O)[C@H]2NC(C)=O)[C@@H]1O` (stereo partly shown) [CO5, penta-N-acetyl-chitopentaose], the Kd on CERK6 came to 2.8 mM; on CHIP13 [1], 1270 µM; at LYR4 it was 96 µM; on MtCERK1, 729 µM.

Turning to `CC(=O)N[C@H]1[C@H](O[C@H]2[C@H](O)[C@@H](NC(C)=O)[C@H](O[C@H]3[C@H](O)[C@@H](NC(C)=O)[C@H](O[C@H]4[C@H](O)[C@@H](NC(C)=O)C(O)O[C@@H]4CO)O[C@@H]3CO)O[C@@H]2CO)O[C@H](CO)[C@@H](O[C@@H]2O[C@H](CO)[C@@H](O[C@@H]3O[C@H](CO)[C@@H](O[C@@H]4O[C@H](CO)[C@@H](O[C@@H]5O[C@H](CO)[C@@H](O)[C@H](O)[C@H]5NC(C)=O)[C@H](O)[C@H]4NC(C)=O)[C@H](O)[C@H]3NC(C)=O)[C@H](O)[C@H]2NC(C)=O)[C@@H]1O` (stereo partly shown) [CO8, octa-N-acetyl-chitooctaose], the Kd at CHIP13 [1] (crystal structure at 1.35 Å: LysM2, LysM3 and bridge domain site) turned out to be 0.9 µM; on CHIP13 [2] it was 107 ± 80 µM; at LYR4, 1.92 µM.
